Experiments:
Type in all cases: in vivo
[1] = test system: wild oat (Avena fatua); test: Test D postemergence plant response; conditions: for Oat, Wild plant response rating: scale 0 to 100 (0 no effect, 100 complete control); for Plant response rating, Oat, Wild: scale 0 to 100, 0 no effect, 100 complete control
Source text: (§1) At the same time, plants selected from these crop and weed species and also kochia (Kochia scoparia), wild oat (Avena fatua), and chickweed (common chickweed, Stellaria media) were planted in pots containing Redi-Earth® planting medium (Scotts Company, 14111 Scottslawn Road, Marysville, Ohio 43041) comprising spaghnum peat moss, vermiculite, wetting agent and starter nutrients and treated with postemergence applications of test chemicals formulated in the same manner. Plants ranged in height from 2 to 18 cm (1- to 4-leaf stage) for postemergence treatments. Treated plants and controls were maintained in a greenhouse for 13 to 15 days, after which time all species were compared to controls and visually evaluated. Plant response ratings, summarized in Table D, are based on a scale of 0 to 100 where 0 is no effect and 100 is complete control. A dash (-) response means no test result.

[2] = test system: kochia (Kochia scoparia); test: Test D postemergence plant response; conditions: for Kochia plant response rating: scale 0 to 100 (0 no effect, 100 complete control); for Plant response rating, Kochia: scale 0 to 100, 0 no effect, 100 complete control
Source text: as §1

[3] = test system: chickweed (common chickweed, Stellaria media); test: Test D postemergence plant response; conditions: for Chickweed plant response rating: scale 0 to 100 (0 no effect, 100 complete control); for Plant response rating, Chickweed: scale 0 to 100, 0 no effect, 100 complete control
Source text: as §1

[4] = test system: blackgrass (Alopecurus myosuroides); test: Test B postemergence plant response
Procedure, shortened: (§2)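 Injury was assessed visually about 10 days after treatment, scored from 0 (no effect) to 100 (complete control) by comparison with untreated controls. Test chemicals had been applied postemergence to potted plants at the one- to two-leaf stage, grown in loam soil and sand in a greenhouse.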

[5] = test system: galium (catchweed bedstraw, Galium aparine); test: Test B postemergence plant response
Procedure, shortened: as §2

[6] = test system: rice (Oryza sativa); test: Test C flooded paddy test plant response; conditions: Flood, 250 g ai/ha; scale of 0 to 100 where 0 is no effect and 100 is complete control; 13 to 15 days
Procedure, shortened: (§3)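 Plants grown to the 2-leaf stage; pots flooded to 3 cm above soil, test compounds applied directly to paddy water, depth maintained throughout. Greenhouse for 13 to 15 days, then visual rating versus controls on a 0–100 scale (0 no effect, 100 complete control).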

[7] = test system: small-flower umbrella sedge (Cyperus difformis); test: Test C flooded paddy test plant response; conditions: Flood, 250 g ai/ha; scale of 0 to 100 where 0 is no effect and 100 is complete control; 13 to 15 days
Procedure, shortened: as §3

[8] = test system: barnyardgrass (Echinochloa crus-galli); test: Test C flooded paddy test plant response; conditions: Flood, 250 g ai/ha; scale of 0 to 100 where 0 is no effect and 100 is complete control; 13 to 15 days
Procedure, shortened: as §3

[9] = test system: ducksalad (Heteranthera limosa); test: Test C flooded paddy test plant response; conditions: Flood, 250 g ai/ha; scale of 0 to 100 where 0 is no effect and 100 is complete control; 13 to 15 days
Procedure, shortened: as §3

[10] = test system: corn (Zea mays); test: Test B pre-/postemergence plant response
Procedure, shortened: (§4)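 Greenhouse pots, loam/sand soil; compound formulated with surfactant in non-phytotoxic solvent. Preemergence soil spray and postemergence spray at 1–2 leaf stage run simultaneously. Visual injury, 0–100, about 10 days post-treatment.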

[11] = test system: giant foxtail (Setaria faberii); test: Test B pre-/postemergence plant response
Procedure, shortened: as §4

[12] = test system: kochia (Kochia scoparia); test: Test B pre-/postemergence plant response
Procedure, shortened: as §4

[13] = test system: pigweed (Amaranthus retroflexus); test: Test B pre-/postemergence plant response
Procedure, shortened: as §4

[14] = test system: barnyardgrass (Echinochloa crus-galli); test: Test B pre-/postemergence plant response
Procedure, shortened: as §4

[15] = test system: ragweed (common ragweed, Ambrosia elatior); test: Test B pre-/postemergence plant response
Procedure, shortened: as §4

[16] = test system: wheat (Triticum aestivum); test: Test B pre-/postemergence plant response
Procedure, shortened: as §4

[17] = test system: Italian ryegrass (Lolium multiflorum); test: Test B pre-/postemergence plant response
Procedure, shortened: as §4

[18] = 125 g ai/ha, postemergence, 0 to 100 scale, 0 no effect, 100 complete control
[19] = Postemergence, 500 g ai/ha, 0 to 100 scale (0 no effect, 100 complete control)
[20] = Preemergence, 125 g ai/ha, 0 to 100 scale where 0 is no effect and 100 is complete control
[21] = Preemergence, 500 g ai/ha, 0 to 100 scale where 0 is no effect and 100 is complete control

Cn1nnc(-c2ccccc2Oc2ncc(Br)cn2)n1 [Compound 50]
Oat, Wild plant response rating ([1]; 16 g ai/ha): 0
Oat, Wild plant response rating ([1]; 31 g ai/ha): 0
Plant response rating, Oat, Wild ([1]; 62 g ai/ha): 0
Plant response rating, Oat, Wild ([1]; 125 g ai/ha): 0
Kochia plant response rating ([2]; 16 g ai/ha): 0
Kochia plant response rating ([2]; 31 g ai/ha): 0
Plant response rating, Kochia ([2]; 62 g ai/ha): 5
Plant response rating, Kochia ([2]; 125 g ai/ha): 15
Chickweed plant response rating ([3]; 16 g ai/ha): 0
Chickweed plant response rating ([3]; 31 g ai/ha): 0
Plant response rating, Chickweed ([3]; 62 g ai/ha): 5
Plant response rating, Chickweed ([3]; 125 g ai/ha): 5
Plant response rating, Blackgrass [4, 18]: 40
Plant response rating, Blackgrass [4, 19]: 60
Plant response rating, Galium [5, 18]: 90
Plant response rating, Galium [5, 19]: 100
Rice plant response rating [6]: 0
Sedge, Umbrella plant response rating [7]: 0
Barnyardgrass plant response rating [8]: 0
Ducksalad plant response rating [9]: 30
Plant response rating, Corn [10, 18]: 0
Plant response rating, Corn [10, 19]: 0
Plant response rating, Foxtail, Giant [11, 18]: 0
Plant response rating, Foxtail, Giant [11, 19]: 10
Plant response rating, Foxtail, Giant [11, 20]: 0
Plant response rating, Foxtail, Giant [11, 21]: 50
Plant response rating, Kochia [12, 18]: 60
Plant response rating, Kochia [12, 19]: 80
Plant response rating, Kochia [12, 20]: 10
Plant response rating, Kochia [12, 21]: 60
Plant response rating, Pigweed [13, 18]: 70
Plant response rating, Pigweed [13, 19]: 100
Plant response rating, Pigweed [13, 20]: 60
Plant response rating, Pigweed [13, 21]: 100
Plant response rating, Barnyardgrass [14, 18]: 0
Plant response rating, Barnyardgrass [14, 19]: 0
Plant response rating, Barnyardgrass [14, 20]: 0
Plant response rating, Barnyardgrass [14, 21]: 10
Plant response rating, Ragweed [15, 18]: 20
Plant response rating, Ragweed [15, 19]: 60
Plant response rating, Ragweed [15, 20]: 0
Plant response rating, Ragweed [15, 21]: 50
Plant response rating, Wheat [16, 18]: 0
Plant response rating, Wheat [16, 19]: 20
Plant response rating, Ryegrass, Italian [17, 18]: 0
Plant response rating, Ryegrass, Italian [17, 19]: 50
Plant response rating, Ryegrass, Italian [17, 20]: 20
Plant response rating, Ryegrass, Italian [17, 21]: 50

Source: patent US10131652B2, “Pyrimidinyloxy benzene derivatives as herbicides” (E. I. DU PONT DE NEMOURS AND COMPANY, priority 2014, dated 2018)
